Test results taken from patent publication US20060069132A1, “Azolecarboxamide herbicides” (priority 2004, published 2006).

Key:
[1] = test system: johnsongrass; assay: Test C pre-/postemergence herbicide test; format: in vivo, Sorghum halepense
How it was run: (§1)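 Visual ratings on a 0–100 scale (100 = complete control) made versus untreated controls after 12 to 14 greenhouse days. Test chemicals, formulated in surfactant-containing non-phytotoxic solvent, applied preemergence to planted seeds or postemergence to 1- to 4-leaf plants (2 to 18 cm).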

[2] = test system: eastern black nightshade; assay: Test C pre-/postemergence herbicide test; format: in vivo, Solanum ptycanthum
How it was run: as §1

[3] = test system: barnyardgrass; assay: Test C flooded paddy test; format: in vivo, Echinochloa crus-galli; settings: for Plant response rating, Barnyardgrass: 500 g ai/ha, visual rating after 12 to 14 days
How it was run: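 Visual rating, 0 (no effect) to 100 (complete control), vs. controls at 12–14 d in greenhouse. Postemergence: 1–4-leaf plants, 2–18 cm. Paddy: flooded, barnyardgrass at 2-leaf stage.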

[4] = test system: common ragweed; assay: Test E pre-/postemergence herbicide test; format: in vivo, Ambrosia elatior
How it was run: (§2)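 Seeds were planted and treated preemergence with test chemicals in a non-phytotoxic solvent mixture containing surfactant; plants at 2 to 18 cm (1- to 4-leaf stage) received postemergence applications of the same formulation. After 12 to 14 days in a greenhouse, injury was visually rated against untreated controls on a 0 to 100 scale.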

[5] = test system: broadleaf signalgrass; assay: Test E pre-/postemergence herbicide test; format: in vivo, Brachiaria platyphylla
How it was run: as §2

[6] = test system: common chickweed; assay: Test E pre-/postemergence herbicide test; format: in vivo, Stellaria media
Source text: Seeds of plant species selected from bipinnate beggarticks (Bidens bipinnata L.), hairy beggarticks (Bidens radiata Thuill.), bermudagrass (Cynodon dactylon (L.) Pers.), Surinam grass (Urochloa decumbens (Staph) R. D. Webster, previously named Brachiaria decumbens Stapf), large crabgrass (Digitaria sanguinalis (L.) Scop.), green foxtail (Setaria viridis (L.) P. Beauv.), goosegrass (Eleusine indica (L.) Gaertn.), johnsongrass (Sorghum halepense (L.) Pers.), kochia (Kochia scoparia (L.) Schrad.), pitted morningglory (Ipomoea lacunosa L.), purple nutsedge (Cyperus rotundus L.), common ragweed (Ambrosia elatior L.), mustard (Brassica nigra (L.) W. D. J. Koch), guineagrass (Panicum maximum Jacq.), dallisgrass (Paspalum dilatatum Poir.), barnyardgrass (Echinochloa crus-galli (L). P. Beauv.), southern sandbur (Cenchrus echinatus L.), common sowthistle (Sonchus oleraceous L.), prickly sida (Sida spinosa L.), Italian ryegrass (Lolium multiflorum Lam.), common purslane (Portulaca oleracea L.), broadleaf signalgrass (Brachiaria platyphylla (Griseb.) Nash), common groundsel (Senecio vulgaris L.), common chickweed (Stellaria media (L.) Vill/Cyr.), tropical spiderwort (Commelina benghalensis L.), annual bluegrass (Poa annua L.), downy bromegrass (Bromus tectorum L.), itchgrass (Rottboellia cochinchinensis (L.) L.f.), quackgrass (Elytrigia repens (L.) Nevski), Canada horseweed (Erigeron Canadensis L.), field bindweed (Convolvulus arvensis L.), spotted spurge (Euphorbia maculata L.), common mallow (Malva sylvestris (=s silvestris) L.), and Russian thistle (Salsola kali L. ssp. Ruthenica (Iljin) Soo) were planted and treated preemergence with test chemicals formulated in a non-phytotoxic solvent mixture which included a surfactant.
At the same time, plants selected from these weed species were treated with postemergence applications of some of the test chemicals formulated in the same manner. Plants ranged in height from 2 to 18 cm (1- to 4-leaf stage) for postemergence treatments. Treated plants and controls were maintained in a greenhouse for 12 to 14 days, after which time all species were compared to controls and visually evaluated. Plant response ratings, summarized in Table E, are based on a scale of 0 to 100 where 0 is no effect and 100 is complete control. A dash (-) response means no test result.

[7] = test system: tropical spiderwort; assay: Test E pre-/postemergence herbicide test; format: in vivo, Commelina benghalensis
How it was run: as §2

[8] = test system: downy bromegrass; assay: Test E pre-/postemergence herbicide test; format: in vivo, Bromus tectorum
How it was run: as §2

[9] = 62 g ai/ha, preemergence, scale 0 to 100
[10] = 250 g ai/ha, scale 0-100, preemergence
[11] = 500 g ai/ha, scale 0 to 100 (0 no effect, 100 complete control), visual, 12 to 14 days, preemergence
[12] = 62 g ai/ha, scale 0 to 100 (0 no effect, 100 complete control)
[13] = 125 g ai/ha, scale 0 to 100 (0 no effect, 100 complete control)
[14] = 250 g ai/ha, scale of 0 to 100, 0 is no effect, 100 is complete control
[15] = scale 0 to 100 (0 no effect, 100 complete control)
[16] = Preemergence, 62 g ai/ha, scale 0 to 100
[17] = Preemergence, 125 g ai/ha, scale 0 to 100
[18] = Preemergence, 250 g ai/ha, scale 0 (no effect) to 100 (complete control)
[19] = Preemergence, 500 g ai/ha, scale 0 (no effect) to 100 (complete control)
[20] = 125 g ai/ha, scale 0 (no effect) to 100 (complete control), visual, 12 to 14 days, preemergence
[21] = Preemergence, 500 g ai/ha, scale 0 to 100, 0 no effect, 100 complete control
[22] = Postemergence, 500 g ai/ha, scale 0 to 100
[23] = Postemergence, 250 g ai/ha, scale 0 to 100
[24] = postemergence, 125 g ai/ha, scale 0 to 100
[25] = postemergence, 62 g ai/ha, scale 0 to 100

## CCc1nn(C(C)(C)C)nc1C(=O)Nc1cccc(C(=S)N(C)C)c1 [Compound 395]
[1]; [9]
  Plant response rating, Johnsongrass: 95
[1]; 125 g ai/ha, preemergence
  Plant response rating (0 = no effect, 100 = complete control), Johnsongrass: 100
[1]; [10]
  Plant response rating, Johnsongrass: 100
[1]; [11]
  Plant response rating, Johnsongrass: 100
[2]; [9]
  Plant response rating, Nightshade: 100
[2]; 125 g ai/ha, preemergence
  Plant response rating (0 = no effect, 100 = complete control), Nightshade: 100
[2]; [10]
  Plant response rating, Nightshade: 100
[2]; [11]
  Plant response rating, Nightshade: 100
[3]; [12]
  Barnyardgrass plant response rating: 75
[3]; [13]
  Barnyardgrass plant response rating: 80
[3]; [14]
  Barnyardgrass plant response rating: 80
[3]; [15]
  Plant response rating, Barnyardgrass: 90
[4]; [16]
  Plant response rating, Ragweed: 10
[4]; [17]
  Plant response rating, Ragweed: 20
[4]; [18]
  Plant response rating, Ragweed: 60
[4]; [19]
  Plant response rating, Ragweed: 60
[5]; [16]
  Plant response rating, Signalgrass: 10
[5]; [17]
  Plant response rating, Signalgrass: 75
[5]; [18]
  Plant response rating, Signalgrass: 85
[5]; [19]
  Plant response rating, Signalgrass: 90
[6]; [17]
  Plant response rating, Chickweed: 90
[6]; [18]
  Plant response rating, Chickweed: 100
[6]; [19]
  Plant response rating, Chickweed: 100
[7]; [18]
  Plant response rating, Spiderwort: 60
[7]; [19]
  Plant response rating, Spiderwort: 90
[8]; [16]
  Plant response rating, Bromegrass, Downy: 40
[8]; [17]
  Plant response rating, Bromegrass, Downy: 40
[8]; [18]
  Plant response rating, Bromegrass, Downy: 95
[8]; [19]
  Plant response rating, Bromegrass, Downy: 95

## CCn1nc(C(C)(C)C)cc1C(=O)Nc1cccc(C(N)=O)n1 [Compound 162, 6-[[[3-(1,1-dimethylethyl)-1-ethyl-1H-pyrazol-5-yl]carbonyl]amino]-2-pyridinecarboxamide]
[1]; [9]
  Plant response rating, Johnsongrass: 65
[1]; [20]
  Plant response rating, Johnsongrass: 80
[1]; [21]
  Johnsongrass plant response rating: 95
[2]; [9]
  Plant response rating, Nightshade: 80
[2]; [20]
  Plant response rating, Nightshade: 100
[2]; [21]
  Nightshade plant response rating: 100
[3]; [12]
  Barnyardgrass plant response rating: 45
[3]; 125 g ai/ha, scale of 0 to 100, 0 is no effect, 100 is complete control
  Barnyardgrass plant response rating: 65
[3]; [14]
  Barnyardgrass plant response rating: 75
[3]; [15]
  Plant response rating, Barnyardgrass: 90
[4]; [22]
  Plant response rating, Ragweed: 90
[4]; [23]
  Plant response rating, Ragweed: 80
[4]; [16]
  Plant response rating, Ragweed: 20
[4]; [17]
  Plant response rating, Ragweed: 60
[4]; [18]
  Plant response rating, Ragweed: 75
[4]; [19]
  Plant response rating, Ragweed: 95
[4]; [24]
  Plant response rating, Ragweed: 75
[4]; [25]
  Plant response rating, Ragweed: 50
[5]; [22]
  Plant response rating, Signalgrass: 90
[5]; [23]
  Plant response rating, Signalgrass: 80
[5]; [17]
  Plant response rating, Signalgrass: 70
[5]; [18]
  Plant response rating, Signalgrass: 100
[5]; [19]
  Plant response rating, Signalgrass: 100
[5]; [24]
  Plant response rating, Signalgrass: 70
[5]; [25]
  Plant response rating, Signalgrass: 30
[6]; [23]
  Plant response rating, Chickweed: 100
[6]; [17]
  Plant response rating, Chickweed: 95
[6]; [18]
  Plant response rating, Chickweed: 95
[6]; [19]
  Plant response rating, Chickweed: 95
[6]; [24]
  Plant response rating, Chickweed: 100
[6]; [25]
  Plant response rating, Chickweed: 80
[7]; [22]
  Plant response rating, Spiderwort: 65
[7]; [23]
  Plant response rating, Spiderwort: 60
[7]; [16]
  Plant response rating, Spiderwort: 20
[7]; [17]
  Plant response rating, Spiderwort: 40
[7]; [18]
  Plant response rating, Spiderwort: 75
[7]; [19]
  Plant response rating, Spiderwort: 75
[7]; [24]
  Plant response rating, Spiderwort: 10
[7]; [25]
  Plant response rating, Spiderwort: 0
[8]; [22]
  Plant response rating, Bromegrass, Downy: 100
[8]; [23]
  Plant response rating, Bromegrass, Downy: 98
[8]; [16]
  Plant response rating, Bromegrass, Downy: 40
[8]; [17]
  Plant response rating, Bromegrass, Downy: 80
[8]; [18]
  Plant response rating, Bromegrass, Downy: 90
[8]; [19]
  Plant response rating, Bromegrass, Downy: 100
[8]; [24]
  Plant response rating, Bromegrass, Downy: 95
[8]; [25]
  Plant response rating, Bromegrass, Downy: 50

## CCn1nc(C2(C)CC2)cc1C(=O)Nc1cc(C(=O)N(C)C)ccc1F [Compound 299]
[1]; [9]
  Plant response rating, Johnsongrass: 85
[1]; [20]
  Plant response rating, Johnsongrass: 100
[1]; [10]
  Plant response rating, Johnsongrass: 100
[1]; [11]
  Plant response rating, Johnsongrass: 100
[2]; [9]
  Plant response rating, Nightshade: 100
[2]; [20]
  Plant response rating, Nightshade: 100
[2]; [10]
  Plant response rating, Nightshade: 100
[2]; [11]
  Plant response rating, Nightshade: 100
[3]; [12]
  Barnyardgrass plant response rating: 85
[3]; [13]
  Barnyardgrass plant response rating: 85
[3]; [14]
  Barnyardgrass plant response rating: 95
[3]; [15]
  Plant response rating, Barnyardgrass: 95
[4]; [22]
  Plant response rating, Ragweed: 90
[4]; [23]
  Plant response rating, Ragweed: 70
[4]; [16]
  Plant response rating, Ragweed: 20
[4]; [17]
  Plant response rating, Ragweed: 85
[4]; [18]
  Plant response rating, Ragweed: 90
[4]; [19]
  Plant response rating, Ragweed: 100
[4]; [24]
  Plant response rating, Ragweed: 60
[4]; [25]
  Plant response rating, Ragweed: 30
[5]; [22]
  Plant response rating, Signalgrass: 80
[5]; [23]
  Plant response rating, Signalgrass: 70
[5]; [16]
  Plant response rating, Signalgrass: 60
[5]; [17]
  Plant response rating, Signalgrass: 80
[5]; [18]
  Plant response rating, Signalgrass: 100
[5]; [19]
  Plant response rating, Signalgrass: 100
[5]; [24]
  Plant response rating, Signalgrass: 60
[5]; [25]
  Plant response rating, Signalgrass: 20
[7]; [22]
  Plant response rating, Spiderwort: 90
[7]; [23]
  Plant response rating, Spiderwort: 80
[7]; [17]
  Plant response rating, Spiderwort: 85
[7]; [18]
  Plant response rating, Spiderwort: 95
[7]; [19]
  Plant response rating, Spiderwort: 100
[7]; [24]
  Plant response rating, Spiderwort: 80
[7]; [25]
  Plant response rating, Spiderwort: 10
[8]; [22]
  Plant response rating, Bromegrass, Downy: 95
[8]; [23]
  Plant response rating, Bromegrass, Downy: 80
[8]; [18]
  Plant response rating, Bromegrass, Downy: 100
[8]; [19]
  Plant response rating, Bromegrass, Downy: 100
[8]; [24]
  Plant response rating, Bromegrass, Downy: 70
[8]; [25]
  Plant response rating, Bromegrass, Downy: 50
